Test system: hyaluronan export from fibroblasts
Assay: Assay for hyaluronan transport/export inhibitors in fibroblast cell culture (hyaluronan in culture medium by ELISA)
Assay type: cell-based
Settings: 48 h, 2 days at 37° C., hyaluronan concentration in culture medium, read-out: Inhibition of hyaluronan export IC50
Procedure: Assay for Hyaluronan Transport/Export Inhibitors in Fibroblast Cell Culture
Trypsinized fibroblasts were suspended in Dulbeccos medium at 10^5 cells/ml and 100 μl aliquots were transferred to a 96 well microtiter plate. The first row received 200 μl of the suspension and 20 μl of the inhibitors of the invention dissolved in phosphate buffered saline at concentrations of 4 mM. A serial dilution of the inhibitors was established by transfer of 100 μl aliquots from the first row to the following rows. All experiments were performed in duplicates. […] The cells were incubated for 2 days at 37° C. and aliquots (5 and 20 μl) of the culture medium were used for measurement of the hyaluronan concentration in the cell culture medium by an ELISA [125]. Briefly, the wells of a 96 well Covalink-NH-microtiter plate (NUNC) were coated with 100 μl of a mixture of […] of hyaluronan (HEALON®), 9.2 μg/ml of N-Hydroxysuccinimide-3-sulfonic acid and 615 μl/ml of 1-ethyl-3-(3-dimethylaminopropyl)-carbodiimide for 2 hours at room temperature and overnight at 4° C. The wells were washed three times with 2 M NaCl, 41 mM MgSO4, 0.05% Tween-20 in 50 mM phosphate buffered saline pH 7.2 (buffer A) and once with 2 M NaCl, 41 mM MgSO4, in phosphate buffered saline pH 7.2. Additional binding sites were blocked by incubation with 300 μl of 0.5% bovine serum albumin in phosphate buffered saline for 30 min at 37° C. Calibration of the assay was performed with standard concentrations of hyaluronan ranging from 15 ng/ml to 6000 ng/ml in equal volumes of culture medium as used for measurement of the cellular supernatants. A solution (50 μl) of the biotinylated hyaluronan binding fragment of aggrecan (Calbiochem) in 1.5 M NaCl, 0.3 M guanidinium hydrochloride, 0.08% bovine serum albumin 0.02% NaN3 25 mM phosphate buffer pH 7.0 was preincubated with 50 μl of the standard hyaluronan solutions or cellular supernatants for 1 hour at 37° C. […] The adsorption was read at 490 nm. The concentrations in the samples were calculated from a logarithmic regression curve of the hyaluronan standard solutions.

SMILES | IC50 [µM]
COc1cc(O)c(CC=C(C)C)c(O)c1C(=O)/C=C/c1ccc(O)cc1 [Xanthohumol] | 8
CC(C)=CCc1c(O)cc(O)c2c1OC(c1ccc(O)cc1)CC2=O (stereo not drawn) [8-Prenylnaringenin] | 15
COc1cc(O)c(CC=C(C)C)c2c1C(=O)CC(c1ccc(O)cc1)O2 (stereo not drawn) [Isoxanthohumol] | 15

— patent US20150045423A1, “COMPOUNDS FOR THE PREVENTION AND/OR TREATMENT OF OSTEOARTHROSIS” (Universitaetsklinikum Muenster, priority 2010, published 2015)
